Data as given in patent publication US20160024108A1, “USE OF DITHIINE-TETRACARBOXIMIDES FOR CONTROLLING BACTERIAL HARMFUL ORGANISMS IN USEFUL PLANTS” (BAYER CROPSCIENCE AKTIENGESELLSCHAFT, priority 2013, published 2016).

Test system: Pseudomonas syringae pv tomato
Assay: Field trial against bacterial speck on tomato (Spain, 2011), artificial inoculation
Type: in vivo
Conditions: formulation containing 400 g per liter at 500 g ai/ha; in comparison with untreated plots and copper oxychloride standard
Procedure: A standard experiment was conducted in Spain in 2011 to evaluate the performance of BCS-BB98685 against bacterial speck of tomato caused by the bacteria Pseudomonas syringae pv tomato. Tomato plants were grown under plastic tunnel. Plots were artificially inoculated with a suspension of bacteria and treated with different experimental chemical formulations using a conventional sprayer. Four chemical sprays were applied within 7 days intervals. One artificial inoculation was performed one day after the third application. Disease assessment was done on 3 tomato plants per plot, 11 days after the last application. Infected leaflets were sorted in 3 classes according to a severity scale (Class 1=1 spot/leaflet; Class 2=2-5 spots/leaflet; Class 3=>5 spots/leaflet). Then results were expressed as severity index and transformed in efficacy values using the Abbott formula.

With `Cn1c(=O)c2sc3c(=O)n(C)c(=O)c3sc2c1=O` [Compound I-1, 2,6-dimethyl-1H,5H-[1,4]dithiino[2,3-c:5,6-c′]dipyrrole-1,3,5,7(2H,6H)-tetrone] the “level of bacterial infection on tomatoes” value was “significantly reduce the level of bacterial infection on tomatoes”.
